This note sets out measurements from patent US20110071150A1 (priority 2009, published 2011).

The assay concerns Jurkat IL-2 Production. Nature of the assay: Jurkat IL-2 Production Assay. It is filed as cell-based. The conditions noted are these: Homo sapiens, Jurkat cell (ATCC), 18-20 h incubation, PHA 5 μg/mL with 1% FBS, or PMA/Ionomycin with 30% FBS (table does not say which). The gist of the method: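 Jurkat cells were exposed to compound (0.25% DMSO final) for 10 min, then stimulated for 18–20 h at 37 °C. The 1% FBS condition used 5 μg/mL PHA; the high-serum condition (30% FBS) used 50 ng/mL PMA plus 500 ng/mL ionomycin. IC50 was derived from IL-2 production.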

`Cc1sc(-c2ccccn2)nc1-c1ccc2[nH]c(-c3c(Cl)cccc3Cl)cc2c1` [Example 217, 2-(2,6-Dichloro-phenyl)-5-(5-methyl-2-pyridin-2-yl-thiazol-4-yl)-1H-indole]: the IC50 (usually the concentration that gives 50% inhibition) came to 100 nM.
`Cc1cccc(C)c1-c1cc2cc(-c3nc(-c4cccnc4)sc3C)ccc2[nH]1` [Example 218, 2-(2,6-Dimethyl-phenyl)-5-(5-methyl-2-pyridin-3-yl-thiazol-4-yl)-1H-indole] had an IC50 of 110 nM.
Molecule `Cc1cccc(C)c1-c1cc2cc(-c3nc(-c4ccccn4)sc3C)ccc2[nH]1` [Example 219, 2-(2,6-Dimethyl-phenyl)-5-(5-methyl-2-pyridin-2-yl-thiazol-4-yl)-1H-indole] returned an IC50 of 158 nM.
Next, `Cc1cccc(F)c1-c1cc2cc(-c3nc(-c4cccnc4)sc3C)ccc2[nH]1` [Example 220, 2-(2-Fluoro-6-methyl-phenyl)-5-(5-methyl-2-pyridin-3-yl-thiazol-4-yl)-1H-indole]: 24 nM; `Cc1cccc(F)c1-c1cc2cc(-c3nc(-c4ccccn4)sc3C)ccc2[nH]1` [Example 221, 2-(2-Fluoro-6-methyl-phenyl)-5-(5-methyl-2-pyridin-2-yl-thiazol-4-yl)-1H-indole]: 95 nM.
Turning to `Cn1nc(C(F)(F)F)cc1-c1ccc2[nH]c(C3CCCCC3)cc2c1` [Example 222], 40 nM corresponded to half-maximal inhibition (IC50).
The molecule `Cc1cc(S(=O)(=O)N(C)C)ccc1-c1ccc2[nH]c(C3CCCCC3)cc2c1` [Example 223, 4-(2-cyclohexyl-1H-indol-5-yl)-N,N,3-trimethylbenzenesulfonamide] registered an IC50 of 54 nM.
Under `COc1cc(C)c(-c2ccc3[nH]c(C4CCCCC4)cc3c2)cn1` [Example 224, 2-cyclohexyl-5-(6-methoxy-4-methylpyridin-3-yl)-1H-indole] stands 83 nM; under `Cc1cc(S(=O)(=O)N(C)C)ccc1-c1ccc2[nH]c(-c3ccccc3F)c(C)c2c1` [Example 225, 4-(2-(2-fluorophenyl)-3-methyl-1H-indol-5-yl)-N,N,3-trimethylbenzenesulfonamide], 153 nM.
Next, `Cc1cc(S(=O)(=O)N(C)C)ccc1-c1ccc2[nH]c(-c3ccccc3)c(C)c2c1` [Example 226, N,N,3-trimethyl-4-(3-methyl-2-phenyl-1H-indol-5-yl)benzenesulfonamide]: 602 nM.
`Cc1c(-c2c(F)cccc2F)[nH]c2ccc(-c3cc(C(F)(F)F)nn3C)cc12` [Example 227]: it took 284 nM to reach half-maximal inhibition (IC50).
Under `Cc1cc(S(=O)(=O)N(C)C)ccc1-c1ccc2[nH]c(-c3c(F)cccc3F)c(C)c2c1` [Example 228, 4-[2-(2,6-Difluoro-phenyl)-3-methyl-1H-indol-5-yl]-3,N,N-trimethyl-benzenesulfonamide] stands 115 nM.
Take `COc1cc(C)c(-c2ccc3[nH]c(-c4c(F)cccc4F)c(C)c3c2)cn1` [Example 229, 2-(2,6-Difluoro-phenyl)-5-(6-methoxy-4-methyl-pyridin-3-yl)-3-methyl-1H-indole]: the IC50 is 164 nM.
